Test results from patent publication US6391305B1, “Conjugates useful in the treatment of prostate cancer” (priority 1999, dated 2002).
Like-named read-outs stand apart in the source and are kept apart here. Marks after values point to notes of the source that are not given here. Non-standard residues stand in square brackets, D forms with d. Residues, ends and D or L forms follow the SMILES beside them. *: point of attachment. Doxorubicin(3'-N) = COc1cccc2c1C(=O)c1c(O)c3c(c(O)c1C2=O)C[C@@](O)(C(=O)CO)C[C@@H]3O[C@H]1C[C@H](N*)[C@H](O)[C@H](C)O1; Dox = doxorubicin, linked through its 3'-amine to the C-terminal carbonyl; Decanoyl(3,6,9-trioxa) = COCCOCCOCC(=O)*; Glyceroyl(2S) = O=C([C@@H](O)CO)*; Glyceroyl(2R) = O=C([C@H](O)CO)*; hArg = N=C(N)NCCCC[C@H](N)C(=O)O; X1 = O=C([C@H](O)[C@@H](O)CO)*; Chg = N[C@H](C(=O)O)C1CCCCC1; Nle = CCCC[C@H](N)C(=O)O; Glycolyl = O=C(CO)*

Assays:
[1] = molecular target: T1, enzymatically active free PSA (Homo sapiens, UniProt P07288); assay: Recognition (cleavage) of oligopeptide-doxorubicin conjugates by free PSA, HPLC; type: biochemical; details: DOX conjugate; for Time to 50% Substrate Cleavage by York PSA: PSA digestion buffer pH7.4, 140 mM NaCl, molar ratio to PSA 100 to 1
T1 construct: required for 50% cleavage of the noted oligopeptides with enzymatically active free PSA
Protocol: If no salt is indicated for the conjugate, the free conjugate was tested.

DuPRO cells = assay: In vitro cytotoxicity, Alamar Blue assay, DuPRO; type: cell-based; details: value in parentheses beside the LNCaP value, read-out: DuPRO cell kill EC 50
Protocol: (§1) The cytotoxicities of the cleaveable oligopeptide-doxorubicin conjugates, prepared as described in Examples 3-6, against a line of cells which is known to be killed by unmodified doxorubicin was assessed with an Alamar Blue assay. Specifically, cell cultures of LNCap prostate tumor cells or DuPRO cells in 96 well plates was diluted with medium containing various concentrations of a given conjugate (final plate well volume of 200 μl ). The cells were incubated for 3 days at 37° C., 20 μl of Alamar Blue is added to the assay well. The cells were further incubated and the assay plates were read on a EL-310 ELISA reader at the dual wavelengths of 570 and 600 nm at 4 and 7 hours after addition of Alamar Blue. Relative percentage viability at the various concentration of conjugate tested was then calculated versus control (no conjugate) cultures. If no salt is indicated, the free conjugate was tested.

[2] = system: LNCap prostate tumor cells; assay: In vitro cytotoxicity, Alamar Blue assay, LNCaP; type: cell-based; details: 72 HRS, read-out: LNCaP Cell Kill in 72 HRS, {48 HRS} EC 50
Protocol: as §1

[3] = listed as PEG(2)-ShRYQ-SL-DOX(3′)

T1 sequence (P07288 25-261): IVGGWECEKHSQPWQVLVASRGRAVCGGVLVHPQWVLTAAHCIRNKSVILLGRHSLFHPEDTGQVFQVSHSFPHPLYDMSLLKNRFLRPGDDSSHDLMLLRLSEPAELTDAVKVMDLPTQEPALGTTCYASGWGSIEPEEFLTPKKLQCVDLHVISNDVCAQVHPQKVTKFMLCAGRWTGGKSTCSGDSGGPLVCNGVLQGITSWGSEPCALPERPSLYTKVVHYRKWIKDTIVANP

Compound | Time to 50% Substrate Cleavage by York PSA [1] [min] | EC50 (DuPRO cells) [µM] | EC50 [2] [µM] | EC50 (DuPRO cells; [3]) [µM] | EC50 [2, 3] [µM] | Time to 50% Substrate Cleavage by York PSA (Min), value marked * ([1]; alternative PSA digestion buffer pH8.0, 25 mM NaCl, 0.5 mM CaCl2)
COCCOCCOCC(=O)N[C@@H](CO)C(=O)N[C@@H](CCCCNC(=N)N)C(=O)N[C@H](C(=O)N[C@@H](CCC(N)=O)C(=O)N[C@@H](CO)C(=O)N[C@@H](CC(C)C)C(=O)N[C@H]1C[C@H](O[C@H]2C[C@](O)(C(=O)CO)Cc3c(O)c4c(c(O)c32)C(=O)c2c(OC)cccc2C4=O)O[C@@H](C)[C@H]1O)C1CCCCC1 [PEG(2)-SHomoRChgQ-SL-DOX (3′), PEG(2)-SerhArgChgGln-SerLeu-DOX (3′)] ({Decanoyl(3,6,9-trioxa)}-S[hArg][Chg]QSL-{Doxorubicin(3'-N)}) | 25 | > 100 | 8.1 |  |  | 
COCCOCCOCC(=O)N[C@@H](CCCCNC(=N)N)C(=O)N[C@@H](CO)C(=O)N[C@@H](CO)C(=O)N[C@H](C(=O)N[C@@H](CCC(N)=O)C(=O)N[C@@H](CO)C(=O)N[C@@H](CC(C)C)C(=O)N[C@H]1C[C@H](O[C@H]2C[C@](O)(C(=O)CO)Cc3c(O)c4c(c(O)c32)C(=O)c2c(OC)cccc2C4=O)O[C@@H](C)[C@H]1O)C1CCCCC1 [PEG(2)-HomoRSSChgQ-SL-DOX (3′), PEG(2)-hArgSerSerChgGln-SerLeu-DOX (3′)] ({Decanoyl(3,6,9-trioxa)}-[hArg]SS[Chg]QSL-{Doxorubicin(3'-N)}) | 11 | > 100 | 5.7 |  |  | 
COc1cccc2c1C(=O)c1c(O)c3c(c(O)c1C2=O)C[C@@](O)(C(=O)CO)C[C@@H]3O[C@H]1C[C@H](NC(=O)[C@H](CC(C)C)NC(=O)[C@H](CO)NC(=O)[C@H](CCC(N)=O)NC(=O)[C@@H](NC(=O)[C@H](CCCCNC(=N)N)NC(=O)[C@H](CO)NC(=O)[C@H](O)CO)C2CCCCC2)[C@H](O)[C@H](C)O1 [(d) 2,3-dihydroxypropionyl-SerhArgChgGln-SerLeu-DOX (3′)] ({Glyceroyl(2R)}-S[hArg][Chg]QSL-{Doxorubicin(3'-N)}) | 65 | > 100 | 5.8 |  |  | 
COc1cccc2c1C(=O)c1c(O)c3c(c(O)c1C2=O)C[C@@](O)(C(=O)CO)C[C@@H]3O[C@H]1C[C@H](NC(=O)[C@H](CC(C)C)NC(=O)[C@H](CO)NC(=O)[C@H](CCC(N)=O)NC(=O)[C@@H](NC(=O)[C@H](CCCCNC(=N)N)NC(=O)[C@H](CO)NC(=O)[C@H](O)[C@@H](O)CO)C2CCCCC2)[C@H](O)[C@H](C)O1 [(2R,3S) 2,3,4-trihydroxybutanoyl-SerhArgChgGln-SerLeu-DOX (3′)] (X1-S[hArg][Chg]QSL-{Doxorubicin(3'-N)}) | 45 | > 100 | 14.1 |  |  | 
COc1cccc2c1C(=O)c1c(O)c3c(c(O)c1C2=O)C[C@@](O)(C(=O)CO)C[C@@H]3O[C@H]1C[C@H](NC(=O)[C@H](CC(C)C)NC(=O)[C@H](CO)NC(=O)[C@H](CCC(N)=O)NC(=O)[C@@H](NC(=O)[C@H](CO)NC(=O)[C@H](CO)NC(=O)[C@@H](O)CO)C2CCCCC2)[C@H](O)[C@H](C)O1 [(l)(2,3-dihydroxypropionyl)-SerSerChgGln-SerLeu-DOX (3′)] ({Glyceroyl(2S)}-SS[Chg]QSL-{Doxorubicin(3'-N)}) | 25 | > 100 | 13 |  |  | 
COc1cccc2c1C(=O)c1c(O)c3c(c(O)c1C2=O)C[C@@](O)(C(=O)CO)C[C@@H]3O[C@H]1C[C@H](NC(=O)[C@H](CC(C)C)NC(=O)[C@H](CO)NC(=O)[C@H](CCC(N)=O)NC(=O)[C@@H](NC(=O)[C@H](CO)NC(=O)[C@H](CO)NC(=O)[C@H](O)CO)C2CCCCC2)[C@H](O)[C@H](C)O1 [(d)(2,3-dihydroxypropionyl)SerSerChgGln-SerLeu-DOX (3′)] ({Glyceroyl(2R)}-SS[Chg]QSL-{Doxorubicin(3'-N)}) | 120 | > 100 | 9.1 |  |  | 
COCCOCCOCC(=O)N[C@@H](CO)C(=O)N[C@@H](CO)C(=O)N[C@H](C(=O)N[C@@H](CCC(N)=O)C(=O)N[C@@H](CO)C(=O)N[C@@H](CC(C)C)C(=O)N[C@H]1C[C@H](O[C@H]2C[C@](O)(C(=O)CO)Cc3c(O)c4c(c(O)c32)C(=O)c2c(OC)cccc2C4=O)O[C@@H](C)[C@H]1O)C1CCCCC1 [PEG(2)SSChgQ-SL-DOX (3′), PEG(2)SerSerChgGln-SerLeu-DOX (3′)] ({Decanoyl(3,6,9-trioxa)}-SS[Chg]QSL-{Doxorubicin(3'-N)}) | 90 | > 100 | 8.8 |  |  | 
COc1cccc2c1C(=O)c1c(O)c3c(c(O)c1C2=O)C[C@@](O)(C(=O)CO)C[C@@H]3O[C@H]1C[C@H](NC(=O)[C@@H](CC(C)C)NC(=O)[C@H](CO)NC(=O)[C@H](CCC(N)=O)NC(=O)[C@@H](NC(=O)[C@H](CO)NC(=O)[C@H](CO)NC(=O)[C@H](CO)NC(=O)[C@@H](O)CO)C2CCCCC2)[C@H](O)[C@H](C)O1 [(l)(2,3-dihydroxypropionyl)SerSerSerChgGln-Ser(dLeu)-DOX (3′)] ({Glyceroyl(2S)}-SSS[Chg]QS[dL]-{Doxorubicin(3'-N)}) | 180 | > 100 | 91 |  |  | 
COCCOCCOCC(=O)N[C@@H](CO)C(=O)N[C@@H](CCCCNC(=N)N)C(=O)N[C@@H](Cc1ccc(O)cc1)C(=O)N[C@@H](CCC(N)=O)C(=O)N[C@@H](CO)C(=O)N[C@@H](CC(C)C)C(=O)N[C@H]1C[C@H](O[C@H]2C[C@](O)(C(=O)CO)Cc3c(O)c4c(c(O)c32)C(=O)c2c(OC)cccc2C4=O)O[C@@H](C)[C@H]1O [PEG(2)-SHomoRYQ-SL-DOX(3′), PEG(2)-SerhArgTyrGln-SerLeu-DOX(3′)] ({Decanoyl(3,6,9-trioxa)}-S[hArg]YQSL-{Doxorubicin(3'-N)}) | 35 |  |  | > 100 | 4.5 | 
COc1cccc2c1C(=O)c1c(O)c3c(c(O)c1C2=O)C[C@@](O)(C(=O)CO)C[C@@H]3O[C@H]1C[C@H](NC(=O)[C@H](CC(C)C)NC(=O)[C@H](CO)NC(=O)[C@H](CCC(N)=O)NC(=O)[C@@H](NC(=O)[C@H](CO)NC(=O)[C@H](CO)NC(=O)[C@H](CCCCNC(=N)N)NC(=O)[C@H](O)CO)C2CCCCC2)[C@H](O)[C@H](C)O1 [(d)(2,3-dihydroxypropionyl)-hArgSerSerChgGln-SerLeu-DOX(3′)] ({Glyceroyl(2R)}-[hArg]SS[Chg]QSL-{Doxorubicin(3'-N)}) | 12 | > 100 | 7.7 |  |  | 
COc1cccc2c1C(=O)c1c(O)c3c(c(O)c1C2=O)C[C@@](O)(C(=O)CO)C[C@@H]3O[C@H]1C[C@H](NC(=O)[C@H](CC(C)C)NC(=O)[C@H](CO)NC(=O)[C@H](CCC(N)=O)NC(=O)[C@@H](NC(=O)[C@H](CO)NC(=O)[C@H](CO)NC(=O)CO)C2CCCCC2)[C@H](O)[C@H](C)O1 [2-hydroxyacetyl-SSChgQ-SL-DOX (3′)] (Glycolyl-SS[Chg]QSL-{Doxorubicin(3'-N)}) | 45 | > 100 | 4.8 |  |  | 
COc1cccc2c1C(=O)c1c(O)c3c(c(O)c1C2=O)C[C@@](O)(C(=O)CO)C[C@@H]3O[C@H]1C[C@H](NC(=O)[C@H](CC(C)C)NC(=O)[C@H](CO)NC(=O)[C@H](CCC(N)=O)NC(=O)[C@@H](NC(=O)[C@H](CO)NC(=O)[C@H](CO)NC(=O)[C@H](CO)NC(=O)CO)C2CCCCC2)[C@H](O)[C@H](C)O1 [2-hydroxyacetyl-SSSChgQ-SL-DOX (3′), N-(2-Hydroxyacetyl)-Ser-Ser-Ser-Chg-Gln-Ser-Leu-Dox] (Glycolyl-SSS[Chg]QSL-{Doxorubicin(3'-N)}) | 25 | > 100 | 7.2 |  |  | 
CCCC[C@H](NC(=O)[C@H](CO)NC(=O)[C@H](CCC(N)=O)NC(=O)[C@H](Cc1ccc(O)cc1)NC(=O)[C@H](CO)NC(=O)[C@H](CO)NC(=O)[C@H](CCCCNC(=N)N)NC(=O)CO)C(=O)N[C@H]1C[C@H](O[C@H]2C[C@](O)(C(=O)CO)Cc3c(O)c4c(c(O)c32)C(=O)c2c(OC)cccc2C4=O)O[C@@H](C)[C@H]1O [2-hydroxyacetyl-HomoRSSYQ-SNle-DOX (3′), 2-hydroxyacetyl-hArgSerSerTyrGln-SerNle-DOX (3′)] (Glycolyl-[hArg]SSYQS[Nle]-{Doxorubicin(3'-N)}) |  | > 100 | 3.6 |  |  | 60* Min
COc1cccc2c1C(=O)c1c(O)c3c(c(O)c1C2=O)C[C@@](O)(C(=O)CO)C[C@@H]3O[C@H]1C[C@H](NC(=O)[C@H](CC(C)C)NC(=O)[C@H](CO)NC(=O)[C@H](CCC(N)=O)NC(=O)[C@@H](NC(=O)[C@H](CO)NC(=O)[C@H](CO)NC(=O)[C@H](CO)NC(=O)[C@@H](O)CO)C2CCCCC2)[C@H](O)[C@H](C)O1 [N-2(S)-2,3-dihydroxypropionyl-Ser-Ser-Ser-Chg-Gln-Ser-Leu-Dox] ({Glyceroyl(2S)}-SSS[Chg]QSL-{Doxorubicin(3'-N)}) | 25 | > 100 | 5.5 |  |  | 
N-[2-{2-(2-methoxyethoxy)ethoxy}acetyl]-Ser-Ser-Ser-Chg-Gln-Ser-Leu-Dox ({Decanoyl(3,6,9-trioxa)}-SSS[Chg]QSL-Dox) [PEG(2)-SSSChgQ-SL-DOX (3′)] | 60 | > 100 | 10 |  |  | 
